We go through 8 molecules from patent publication US20080260722A1, “Method for High Efficiency Survival/Proliferation of Human Embyonic Stem Cells and Human Embryo Survival in Culture” (The Johns Hopkins University Johns Hopkins Technology …, priority 2004, published 2008).

For one assay, the system named is TRKs. As to conditions: cited from earlier work.
The test system of assay [1] is hES cells. Put plainly: low-density survival assay in MEF-CM with TRK inhibitors. In kind it is cell-based, human. As to conditions: increasing inhibitor concentrations, versus DMSO vehicle.
Protocol: TRK signaling and survival can be blocked by pharmacological inhibition; TRK inhibitors were added to hES cells plated with MEF-CM in the low-density survival assay; hES cells were exposed to increasing concentrations of a GW441756, K252A, or vehicle (DMSO).
Human ES cell lines H1 and H9 were cultured as described by Thornson and colleagues^15 in high glucose DMEM supplemented with L-glutanine, non-essential amino acids, serum replacement (Invitrogen) and 4 ng/ml basic Fibroblast growth factor (Invitrogen). Mouse embryo fibroblasts (MEFs) (Specialty Media). were plated at 5-7×10^6 cells/ml. To prepare single cell suspensions of hES cells, the cells were washed twice with PBS, then incubated in 0.05% trypsin/EDTA (InVitrogen) for 5 minutes at 37° C. The cells were triturated with a 5-ml pipette until a single cell suspension was obtained. […] For low-density survival assays, trypsinized cells were counted using a hemocytometer and 500 cells were plated in each well of 96-well plate containing MEFs or coated with Matrigel (BD Biosciences). […] Individual hES cells or hES cell colonies were counted manually on an inverted microscope. […]
To test this prediction, hES cell survival was measured using the low density survival assay in the presence or absence of two different TRK inhibitors, GW441756 and K252a^17-19.
The subject of assay [2] is hES cells. Put plainly: low-density survival assay in NTs without bFGF with pathway inhibitors. It counts as cell-based, human. As to conditions: single cells at low density in NTs, no bFGF, increasing inhibitor concentrations. As to the method: FIG. 8. PI-3K activity is required for hES cell survival; a. […] NTs have differential effects on AKT and MEK1/2 phosphorylation; hES cells were grown in the presence or absence of NTs (but without bFGF) and cell lysates probed with antibodies to phospho-AKT or phospho-MEK1/2; in the absence of NTs, a weak phospho-AKT band is observed; upon stimulation of hES cells with NTs a stronger band is observed; the intensity of the bands were compared to the total level of AKT and to a loading control (Beta-tubulin); in contrast no change in the level of phospho-MEK1/2 was observed by comparison with the controls.
Human ES cell lines H1 and H9 were cultured as described by Thornson and colleagues^15 in high glucose DMEM supplemented with L-glutanine, non-essential amino acids, serum replacement (Invitrogen) and 4 ng/ml basic Fibroblast growth factor (Invitrogen). Mouse embryo fibroblasts (MEFs) (Specialty Media). were plated at 5-7×10^6 cells/ml. To prepare single cell suspensions of hES cells, the cells were washed twice with PBS, then incubated in 0.05% trypsin/EDTA (InVitrogen) for 5 minutes at 37° C. […] For low-density survival assays, trypsinized cells were counted using a hemocytometer and 500 cells were plated in each well of 96-well plate containing MEFs or coated with Matrigel (BD Biosciences). […] Individual hES cells or hES cell colonies were counted manually on an inverted microscope. […]

Assay [3] relates to hES cells. Put plainly: low-density survival assay with individual neurotrophins on MEFs or Matrigel. In kind it is cell-based, human. The conditions noted are these: 500 cells/well on MEFs or Matrigel, 0.01-100 ng/ml, 4-5 days. The source says: FIG. 4. Individual neurotrophins have dose-dependent effects on hES cell survival; a. Effect of NTs on hES cell survival at low-density on MEFs. hES cells were trypsinized and plated at low density (500 cells per well) on MEFs in 96-well plates in the presence of NT3, BDNF, NT4, NGF or hES medium lacking added growth factor; After 4-5 days, the colonies (comprised of approximately 7-11 cells) were fixed and stained for alkaline phosphatase; b. […] NTs (BDNF, NT4 and NT3) also have statistically significant differences between concentrations of 0.01-100 ng/ml at p<0.05; c. Phase contrast images (at 4×) of morphology of hES cell colonies observed on MEFs or Matrigel™ in the low-density survival assay.
Human ES cell lines H1 and H9 were cultured as described by Thornson and colleagues^15 in high glucose DMEM supplemented with L-glutanine, non-essential amino acids, serum replacement (Invitrogen) and 4 ng/ml basic Fibroblast growth factor (Invitrogen). Mouse embryo fibroblasts (MEFs) (Specialty Media). were plated at 5-7×10^6 cells/ml. To prepare single cell suspensions of hES cells, the cells were washed twice with PBS, then incubated in 0.05% trypsin/EDTA (InVitrogen) for 5 minutes at 37° C. The cells were triturated with a 5-ml pipette until a single cell suspension was obtained. Trypsin inhibitor (InVitrogen) was added and the cell suspension filtered through a […] (Fisher Scientific) to remove clumps and MEFs. For clonal survival assays, single hES cells were diluted to clonal density and plated into a well of a 96-well plate containing MEFs. For low-density survival assays, trypsinized cells were counted using a hemocytometer and 500 cells were plated in each well of 96-well plate containing MEFs or coated with Matrigel (BD Biosciences). To visualize hES colonies, cultures were fixed in 4% para-formaldehyde in PBS for 30 minutes, washed once in PBS, once in distilled H2O, then stained for alkaline phosphatase activity as described previously^25. Individual hES cells or hES cell colonies were counted manually on an inverted microscope. NGF, BDNF, NT3 and NT4 were purchased from Peprotech. The TRK inhibitors GW441756 (Sigma) and K252A (Calbiochem), PI-3K inhibitor, MAPK inhibitors, STAT3 inhibitor and control peptides (all from Calbiochem) were prepared according to the manufacturer's instructions. For the antibody blocking experiments, antibodies to NGF, NT3, NT4 and BDNF as well as a control antibody were obtained from Promega. Antibodies were added to culture medium at a concentration of 20 ug/ml. Following culture, the cultures were fixed and stained for alkaline phosphatase activity as described above. Each experiment consisted of at least four replicates per treatment and each experiment was repeated at least three times. […]

Consider `Cn1cc(/C=C2\C(=O)Nc3cccnc32)c2ccccc21` [GW441756], for which the “selectivity for TRKs over many kinases including c-Src, VEGFR2, Raf and CDK1” value with TRKs is reported as 10-fold, or in some cases 100-fold. The “effect on hES cell survival” value in the assay on hES cells [1] was “statistically-significant and dose-dependent effects on hES cell survival”.

For `COC(=O)[C@@]1(O)C[C@H]2O[C@]1(C)n1c3ccccc3c3c4c(c5c6ccccc6n2c5c31)C(=O)NC4` [K252a], the “effect on hES cell survival” value with hES cells [1] was “statistically-significant and dose-dependent effects on hES cell survival”.

As for `COc1cccc(-c2cc(=O)c3ccccc3o2)c1N` [PD98059], the “effect on hES cell survival” value in the assay on hES cells [2] was “no effect on hES cell survival”.

Turning to `CS/C(N)=C(C#N)/C(C#N)=C(\N)SC` [UO124], the “effect on hES cell survival” value in the assay with hES cells [2] is “no effect on hES cell survival”.

Turning to nerve growth factors [NGF], the “effect on hES cell survival” value in the assay with hES cells [3] is recorded as “slight increase in hES cell survival”.

B1: neurotrophin 3 (protein, UniProt P20783 139-257, looked up)
Neurotrophin-3: YAEHKSHRGEYSVCDSESLWVTDKSSAIDIRGHQVTVLGEIKTGNSPVKQYFYETRCKEARPVKNGCRGIDDKHWNSQCKTSQTYVRALTSENNKLVGWRWIRIDTSCVCALSRKIGRT
notes: TRK ligand, neurotrophin purchased from Peprotech
With B1, the “effect on hES cell survival” value with hES cells [3] was “potent, dose dependent effects on hES cell survival”.

B2: brain derived neurotrophic factor (protein, UniProt P23560 19-247, looked up)
Neurotrophic factor BDNF …: APMKEANIRGQGGLAYPGVRTHGTLESVNGPKAGSRGLTSLADTFEHVIEELLDEDQKVRPNEENNKDADLYTSRVMLSSQVPLEPPLLFLLEEYKNYLDAANMSMRVRRHSDPARRGELSVCDSISEWVTAADKKTAVDMSGGTVTVLEKVPVSKGQLKQYFYETKCNPMGYTKEGCRGIDKRHWNSQCRTTQSYVRALTMDSKKRIGWRFIRIDTSCVCTLTIKRGR
notes: as for B1
B2: the “effect on hES cell survival” value in the assay on hES cells [3] is given as “potent, dose dependent effects on hES cell survival”.

B3: neurotrophin 4 (protein, UniProt P34130 81-210, looked up)
Neurotrophin-4: GVSETAPASRRGELAVCDAVSGWVTDRRTAVDLRGREVEVLGEVPAAGGSPLRQYFFETRCKADNAEEGGPGAGGGGCRGVDRRHWVSECKAKQSYVRALTADAQGRVGWRWIRIDTACVCTLLSRTGRA
notes: as for B1
Turning to B3, the “effect on hES cell survival” value with hES cells [3] is reported as “potent, dose dependent effects on hES cell survival”.
